What is called IC50 is the concentration that inhibits the measured activity by half. A high value points to weaker potency.

This is an account of results in PMC4335503, “Novel Inhibitors of Cholesterol Degradation in Mycobacterium tuberculosis Reveal How the Bacterium’s Metabolism Is Constrained by the Intracellular Environment” (PLoS Pathogens, 2015).

In experiment [1] the target is T1, PrpC (2-methylcitrate synthase, Rv1131) (Mycobacterium tuberculosis, UniProt I6Y9Q3).
T1 construct: full-length, C-terminal 6x-His tag
The experiment is described as follows: biochemical.

In experiment [2] the target is HsaAB (HsaA, of the two-component flavin-dependent hydroxylase) (Mycobacterium tuberculosis, UniProt P9WJA1). In words: biochemical.
Sequence of HsaAB (HsaA, of the two-component flavin-dependent hydroxylase) (P9WND9 whole entry): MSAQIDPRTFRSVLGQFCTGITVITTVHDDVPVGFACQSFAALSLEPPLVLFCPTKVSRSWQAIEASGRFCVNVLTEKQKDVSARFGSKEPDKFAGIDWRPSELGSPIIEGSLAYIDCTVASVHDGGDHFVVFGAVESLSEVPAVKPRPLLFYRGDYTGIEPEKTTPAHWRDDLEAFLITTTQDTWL
Sequence of HsaAB (HsaA, of the two-component flavin-dependent hydroxylase) (P9WJA1 whole entry): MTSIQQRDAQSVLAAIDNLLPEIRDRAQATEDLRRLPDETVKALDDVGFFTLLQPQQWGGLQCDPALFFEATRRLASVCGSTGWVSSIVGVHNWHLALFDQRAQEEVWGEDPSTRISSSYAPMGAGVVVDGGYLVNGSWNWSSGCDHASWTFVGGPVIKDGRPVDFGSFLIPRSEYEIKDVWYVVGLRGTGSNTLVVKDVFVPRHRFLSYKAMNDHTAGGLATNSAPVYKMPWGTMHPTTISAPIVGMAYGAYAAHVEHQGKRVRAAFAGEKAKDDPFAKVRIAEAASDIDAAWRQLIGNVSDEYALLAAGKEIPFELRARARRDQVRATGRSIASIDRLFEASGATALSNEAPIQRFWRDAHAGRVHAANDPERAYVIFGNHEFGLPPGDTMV

T1 sequence (I6Y9Q3 whole entry): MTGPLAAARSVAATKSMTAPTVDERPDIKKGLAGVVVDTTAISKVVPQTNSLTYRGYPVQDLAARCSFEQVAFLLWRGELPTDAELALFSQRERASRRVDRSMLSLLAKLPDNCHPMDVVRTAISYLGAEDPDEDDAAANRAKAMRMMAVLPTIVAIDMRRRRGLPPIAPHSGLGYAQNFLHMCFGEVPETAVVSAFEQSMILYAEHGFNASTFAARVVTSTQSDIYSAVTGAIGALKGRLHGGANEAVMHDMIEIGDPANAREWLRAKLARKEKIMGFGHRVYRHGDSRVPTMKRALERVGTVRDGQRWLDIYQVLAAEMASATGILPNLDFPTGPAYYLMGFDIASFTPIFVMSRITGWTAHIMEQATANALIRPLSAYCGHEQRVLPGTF

In experiment [1], `Cc1nnc(NS(=O)(=O)c2ccc(NC(=O)c3cc(-c4ccc(Cl)cc4)oc3C(F)(F)F)cc2)s1` [V-13–009920, 5-(4-chlorophenyl)-N-(4-(N-(5-methyl-1,3,4-thiadiazol-2-yl)sulfamoyl)phenyl)-2-(trifluoromethyl)furan-3-carboxamide] displayed an IC50 of 4 ± 1.1 µM.
In experiment [2], `Cc1noc(C)c1C(=O)Nc1nnc(-c2ccccc2)s1` [V-13–011503, 3,5-dimethyl-N-(5-phenyl-1,3,4-thiadiazol-2-yl)-1,2-oxazole-4-carboxamide] yielded an IC50 of 11 ± 2 µM.
Compound `Cc1cc(=O)n2[nH]c(-c3ccc(F)cc3)nc2n1` [V-13–012725, 2-(4-fluorophenyl)-5-methyl-1H-[1,2, 4]triazolo[1,5-a]pyrimidin-7-one] registered an IC50 in experiment [2] of 5 ± 0.8 µM.
